Values joined by “and” are separate entries in the source; they are usually repeats but may differ in a detail not shown here. Identical values can stand only once.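 48-hour exposure; five concentrations; linearly interpolated endpoints. Abbreviation: GI50, concentration required for 50% inhibition of growth. The concentration for full growth arrest is given as TGI.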
Tests used:
Test in all cases: NCI anticancer screen, dose series, 48 h
[1] = test system: A549 NSCLC
[2] = test system: K-562 leukemia
[3] = test system: M14 melanoma
[4] = test system: MALME-3M melanoma
[5] = test system: NCI-H23 lung
[6] = test system: OVCAR-5 ovarian
[7] = test system: SNB-19 CNS
[8] = test system: UACC-62 melanoma
[9] = test system: MDA-MB-231 breast
[10] = test system: T-47D breast

| Structure (SMILES) | TGI [1] | TGI [2] | TGI [3] | TGI [4] | TGI [5] | TGI [6] | TGI [7] | TGI [8] | GI50 [2] | GI50 [3] [nM] | GI50 [5] | GI50 [8] | GI50 [1] | GI50 [4] | GI50 [6] | GI50 [7] | GI50 [9] | TGI [9] [µM] | GI50 [10] [µM] | TGI [10] [µM] |
| --- | --- | --- | --- | --- | --- | --- | --- | --- | --- | --- | --- | --- | --- | --- | --- | --- | --- | --- | --- | --- |
| COC(=O)C(=O)C(C(=O)C(=O)Nc1ccccc1C(N)=O)c1nc2ccc(C(=O)c3ccccc3)cc2[nH]c1=O (centres undefined) | > 100 µM | > 100 µM | > 100 µM | > 100 µM | > 100 µM | > 100 µM | > 100 µM | 65.4 µM | – | – | – | – | – | – | – | – | – | – | – | – |
| COc1ccccc1NC(=O)C(=O)C1C(=O)Nc2ccccc2S1=O (centres undefined) | > 100 µM | > 100 µM | > 100 µM | > 100 µM | > 100 µM | > 100 µM | > 100 µM | > 100 µM | – | – | – | – | – | – | – | – | – | – | – | – |
| O=C1/C(=C/c2ccccc2)CN(C(=O)Oc2ccc([N+](=O)[O-])cc2)C/C1=C\c1ccccc1 | – | 5.33 µM | 6.74 µM and 3.51 µM | – | – | – | – | – | 1790 nM | 1710 | 9790 nM | 3810 nM | – | – | – | – | – | – | – | – |
| CCOC(=N)CC(=O)NC(C)c1ccccc1 (centres undefined) | > 100 µM | > 100 µM | > 100 µM | > 100 µM | > 100 µM | > 100 µM | > 100 µM | > 100 µM | – | – | – | – | – | – | – | – | – | – | – | – |
| CCCCCCCCCCCCCCCC(=O)N[C@H]1CCc2cc(OC)c(OC)c(OC)c2-c2ccc(SC)c(=O)cc21 | 13.1 µM and 14.4 µM | 11.1 µM and 14.5 µM | 2.86 µM and 1.89 µM | 16.3 µM and 1.67 µM | 1.96 µM and 3.85 µM | 41.1 µM and 36.8 µM | 9.27 µM and 8.35 µM | 13.4 µM and 11.8 µM | 709 nM | 386 | 1250 nM | 1210 nM | 3630 nM | 0.345 µM | 19.7 µM | 2460 nM | – | – | – | – |
| COc1ccc(N(Cc2cc(OC)c(OC)c(OC)c2)C2OC(=O)c3ccccc32)cc1 (centres undefined) | > 100 µM | > 100 µM | > 100 µM | > 100 µM | > 100 µM | > 100 µM | – | > 100 µM | 346 nM | 390 | 1150 nM | 498 nM | 626 nM | 0.511 µM | 3.53 µM | – | 1210 nM | > 25.4 | 78 | > 100 |
| COC(=O)C1=C(O)C(C(=O)OC)[C@@]2(O)[C@@H](C(=O)OC)C(c3ccc(OC(=O)C(CC(C)C)NC(C)=O)cc3)C[C@@H]1[C@@H]2C(=O)OC (some centres undefined) | > 100 µM | > 100 µM | 88.1 µM | – | > 100 µM | > 100 µM | > 100 µM | 63.8 µM | 95000 nM | 27500 | 36900 nM | 23200 nM | 38300 nM | – | 32.2 µM | 37100 nM | 30000 nM | > 100 | 37.8 | > 100 |
| CCOC(=O)NNC(=O)NC12CC3CC(CC(C3)C1)C2 | > 100 µM | > 100 µM | > 100 µM | > 100 µM | > 100 µM | > 100 µM | > 100 µM | > 100 µM | – | – | – | – | – | – | – | – | – | – | – | – |
| Cn1cc(-c2nn3cc(-c4cccs4)nc3s2)c2cc(F)ccc21 | 95.6 µM | > 100 µM | > 100 µM | 31.6 µM | > 100 µM | 84.4 µM | > 100 µM | > 100 µM | 451 nM | 1050 | 3820 nM | 1930 nM | 2850 nM | 1.81 µM | 8.24 µM | 3440 nM | 3230 nM | 30.6 | – | – |
| COc1ccc(-n2nc(C)c3c2N(C)C2(C)C[C@@H]4C3(C)[C@@H]3CC4(C2)N(C)c2c(c(C)nn2-c2ccc(OC)cc2)[C@H]3C)cc1 (some centres undefined) | > 100 µM | – | – | > 100 µM | 99.9 µM | > 100 µM | 86.3 µM | > 100 µM | – | – | 18700 nM | 12600 nM | 3290 nM | 6.34 µM | > 100 µM | 4450 nM | 6350 nM | 48.3 | 2.44 | 81.9 |
| O=C1CC2Sc3ccccc3N=C2N1c1ccc(Cl)cc1Cl (centres undefined) | > 100 µM | – | > 100 µM | > 100 µM | > 100 µM | > 100 µM | > 100 µM | > 100 µM | – | – | – | – | – | – | – | – | – | – | – | – |
| CCCCCCCCC(=O)NCCCNCCCNC(=O)CCCCCCCC | 29 µM | 4.55 µM | 4.15 µM | 26.6 µM | 29.9 µM | 28.5 µM | 35.9 µM | 12.3 µM | – | – | – | – | – | – | – | – | – | – | – | – |
| OCCCCC#Cc1ccccc1C#Cc1cnccn1 | > 100 µM | > 100 µM | – | > 100 µM | > 100 µM | > 100 µM | > 100 µM | > 100 µM | 29500 nM | – | 40800 nM | 21200 nM | 38300 nM | 47.9 µM | 47.7 µM | 73400 nM | 18000 nM | 54.9 | 27.5 | > 100 |
| Clc1ccccc1C1=NN(c2ccccc2)C2c3cc(Br)ccc3OCC12 (centres undefined) | > 100 µM | > 100 µM | – | > 100 µM | > 100 µM | > 100 µM | > 100 µM | – | – | – | – | – | – | – | – | – | – | – | – | – |
| Cc1ns/c(=N\C(=S)N(C)C)n1C | > 100 µM | > 100 µM | > 100 µM | > 100 µM | > 100 µM | > 100 µM | > 100 µM | > 100 µM | – | – | – | – | – | – | – | – | – | – | – | – |
| COc1cc(OC)cc(N2CCN(C(=O)Nc3nc4cc(F)ccc4nc3OC)CC2)c1 | > 100 µM | > 100 µM | – | 46.8 µM and 44.8 µM | 52.2 µM and 34.5 µM | > 100 µM | > 95.9 µM and 40.3 µM | 27.2 µM and 21.9 µM | 18.4 nM and 37.5 nM and 30.4 nM | – | 57.8 nM and 62 nM and 52 nM | < 10 nM and 14.2 nM | 36.7 nM and 44.9 nM and 35.7 nM | 5.45 µM and 12.5 µM | 0.0557 µM and 0.158 µM and 0.0528 µM | 41.8 nM and 45 nM and 43.1 nM | 52.4 nM and 97.6 nM and 36.1 nM | – | 0.832 | 43.8 |
| N#CC(=C=[N-])[n+]1ccc(Cl)cc1 | > 100 µM | 11.3 µM | 31.1 µM | 30.6 µM | 29.9 µM | 32.7 µM | 94.5 µM | 29.9 µM | – | – | – | – | – | – | – | – | – | – | – | – |
| O=C1c2cccc3cccc(c23)C(=O)N1CCCN1CCN(CCCN2C(=O)c3cccc4cccc(c34)C2=O)CC1 | > 100 µM | > 100 µM | > 100 µM | > 100 µM | > 100 µM | > 100 µM | > 100 µM | > 100 µM | – | – | – | – | – | – | – | – | – | – | – | – |

Reference: PubChem BioAssay (NCI)
